Experimental data taken from patent publication US6638957B1, “Use of compounds with a nitrogen-oxygen heterocycle” (Jomaa Pharmaka GmbH, priority 1999, dated 2003).
≈ marks a conversion by molar mass, not a printed value. Read-outs that look alike come from different tables or passages of the source.

Legend:
Pseudomonas aeruginosa = test: antibacterial activity, minimum inhibition concentration in liquid culture; assay type: cell-based; conditions: read-out: MIC(nM) of bacteria culture (Pseudomonas aeruginosa)
Protocol: A dilution series comprising the concentrations 500, 100, 50, 10 and 0 μmol 1^−1 of the individual compounds in LB medium is introduced into 5 culture microtubes in a volume of 0,5 ml. The tubes were inoculated with 10 μl of an overnight culture of E. coli K12 and shaken overnight at 37° C. The growth of the bacteria was assessed on the basis of the turbidity of the medium. The minimum concentration causing inhibition of bacterial growth was determined (minimum inhibition concentration MIC)
The antibacterial activity of P. aeruginosa was determined in the same manner.

Setaria viridis [1] = test: herbicidal activity, Erde Vorauflauf; assay type: in vivo; conditions: 500 Gramm/Hektar
Protocol: (§1) The determination of herbicidal activity is performed according to standard procedure. Again the compounds listed on page 9 are tested.

Sinapis arvensis [2] = test: herbicidal activity, Erde Vorauflauf; assay type: in vivo; conditions: Mutarda arvensis; 500 Gramm/Hektar
Protocol: as §1

Cyperus esculentus [3] = test: herbicidal activity, Erde Vorauflauf; assay type: in vivo; conditions: 500 Gramm/Hektar
Protocol: as §1

Xanthium strumarium [4] = test: herbicidal activity, Erde Vorauflauf; assay type: in vivo; conditions: 500 Gramm/Hektar
Protocol: as §1

Avena fatua [5] = test: herbicidal activity, Erde Vorauflauf; assay type: in vivo; conditions: 500 Gramm/Hektar
Protocol: as §1

Alopecurus myosuroides [6] = test: herbicidal activity, Erde Vorauflauf; assay type: in vivo; conditions: 500 Gramm/Hektar
Protocol: as §1

Abutilon theophrasti [7] = test: herbicidal activity, Erde Vorauflauf; assay type: in vivo; conditions: 500 Gramm/Hektar
Protocol: as §1

Amaranthus retroflexus [8] = test: herbicidal activity, Erde Vorauflauf; assay type: in vivo; conditions: 500 Gramm/Hektar
Protocol: as §1

Zea mays [9] = test: herbicidal activity, Erde Vorauflauf; assay type: in vivo; conditions: 500 Gramm/Hektar
Protocol: as §1

Galium aperine [10] = test: herbicidal activity, Erde Vorauflauf; assay type: in vivo; conditions: 500 Gramm/Hektar
Protocol: as §1

Beta vulgaris [11] = test: herbicidal activity, Erde Vorauflauf; assay type: in vivo; conditions: 500 Gramm/Hektar
Protocol: as §1

Solanum = test: herbicidal activity, Hydro Vorauflauf; assay type: in vivo; conditions: 1000 Gramm/Hektar
Protocol: as §1

Lepidium = test: herbicidal activity, Hydro Vorauflauf; assay type: in vivo; conditions: 1000 Gramm/Hektar
Protocol: as §1

Echinochloa = test: herbicidal activity, Hydro Vorauflauf; assay type: in vivo; conditions: 1000 Gramm/Hektar
Protocol: as §1

Reis = test: herbicidal activity, Hydro Vorauflauf; assay type: in vivo; conditions: 1000 Gramm/Hektar
Protocol: as §1

Plasmodium falciparum = test: antimalaria activity on in vitro cultures, [3H]-hypoxanthine incorporation; assay type: cell-based; conditions: 72 h, inhibition of [3H]-hypoxanthine incorporation, 48 + 24 hours, read-out: IC50(nM) of malaria culture (Plasmodium falciparum)
Protocol: The antimalaria activity of the compounds listed on page 9 was determined on in vitro cultures of the malaria pathogen Plasmodium falciparum. The depressions of a 96-well microtitre plate were charged with in each case 200 μl of an asynchroneous Plasmodium falciparum culture at a parasitaemia of 0,4% and haematokrit of 2%. A serial dilution series of the compounds in triple steps between concentrations of 100 to 0,14 μmol 1^−1 was then prepared. The plates were incubated at 37° C., 3% CO2 and 5% O2 over a period of 48 hours. 30 μl medium supplemented with 27 μCi ml^−1 [^3H]-hypoxanthine were then added to each well. After incubation for 24 hours the parasites were harvested by filtration on a glass fibre filter and the radioactivity which had been incorporated was measured. The inhibition of the growth of parasites was measured as the percentage inhibition of the incorporation of tritium. Inhibition of the growth of the parasites has been determined as percentage inhibition of incorporation of tritium based on a comparison without the substance. The half-maximum inhibitory concentration (IC50) of the substance was determined by extrapolation of the values.

[12] = target: T1, DOXP reductoisomerase of Escherichia coli (UniProt P56139); test: inhibition of recombinant DOXP reductoisomerase (NADPH oxidation); assay type: biochemical; conditions: 1 mM DOXP, 0,3 mM NADPH, pH 7,5; read-out: IC50(nM) of DOXP reductoisomerase from Helicobacter pilori
T1 sequence (P56139 1-368): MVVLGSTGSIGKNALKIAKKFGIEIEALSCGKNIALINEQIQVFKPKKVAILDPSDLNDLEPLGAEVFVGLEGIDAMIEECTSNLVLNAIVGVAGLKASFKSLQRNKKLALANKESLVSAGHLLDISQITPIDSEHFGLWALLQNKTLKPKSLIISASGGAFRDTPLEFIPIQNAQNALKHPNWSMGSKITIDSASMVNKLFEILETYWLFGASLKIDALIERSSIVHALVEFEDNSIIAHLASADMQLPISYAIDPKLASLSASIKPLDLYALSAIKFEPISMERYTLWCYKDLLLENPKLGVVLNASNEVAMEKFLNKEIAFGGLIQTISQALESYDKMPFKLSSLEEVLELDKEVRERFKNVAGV

Setaria viridis [13] = test: herbicidal activity, Erde Nachauflauf; assay type: in vivo; conditions: 500 Gramm/Hektar
Protocol: as §1

Sinapis arvensis [14] = test: herbicidal activity, Erde Nachauflauf; assay type: in vivo; conditions: Mutarda arvensis; 500 Gramm/Hektar
Protocol: as §1

Cyperus esculentus [15] = test: herbicidal activity, Erde Nachauflauf; assay type: in vivo; conditions: 500 Gramm/Hektar
Protocol: as §1

Xanthium strumarium [16] = test: herbicidal activity, Erde Nachauflauf; assay type: in vivo; conditions: 500 Gramm/Hektar
Protocol: as §1

Avena fatua [17] = test: herbicidal activity, Erde Nachauflauf; assay type: in vivo; conditions: 500 Gramm/Hektar
Protocol: as §1

Alopecurus myosuroides [18] = test: herbicidal activity, Erde Nachauflauf; assay type: in vivo; conditions: 500 Gramm/Hektar
Protocol: as §1

Abutilon theophrasti [19] = test: herbicidal activity, Erde Nachauflauf; assay type: in vivo; conditions: 500 Gramm/Hektar
Protocol: as §1

Amaranthus retroflexus [20] = test: herbicidal activity, Erde Nachauflauf; assay type: in vivo; conditions: 500 Gramm/Hektar
Protocol: as §1

Zea mays [21] = test: herbicidal activity, Erde Nachauflauf; assay type: in vivo; conditions: 500 Gramm/Hektar
Protocol: as §1

Galium aperine [22] = test: herbicidal activity, Erde Nachauflauf; assay type: in vivo; conditions: 500 Gramm/Hektar
Protocol: as §1

Beta vulgaris [23] = test: herbicidal activity, Erde Nachauflauf; assay type: in vivo; conditions: 500 Gramm/Hektar
Protocol: as §1

**Q.** Which MIC (Pseudomonas aeruginosa; LB medium, overnight at 37° C., turbidity) does the source give for `CC1(C)CON(C(=O)CP(C)(=O)O)C1=O` [Compound 1] here?
**A.** 500 nM (≈ 0.118 µg/mL)

**Q.** What about the pest or weed control at 500 g/ha (Setaria viridis [1]) of the same molecule?
**A.** 0%

**Q.** What about the pest or weed control at 500 g/ha (Sinapis arvensis [2]) of the same molecule?
**A.** 40%

**Q.** And the pest or weed control at 500 g/ha (Cyperus esculentus [3])?
**A.** 0%

**Q.** What about the pest or weed control at 500 g/ha (Xanthium strumarium [4]) of the same molecule?
**A.** 0%

**Q.** And the pest or weed control at 500 g/ha (Avena fatua [5])?
**A.** 0%

**Q.** And the pest or weed control at 500 g/ha (Alopecurus myosuroides [6])?
**A.** 50%

**Q.** What about the pest or weed control at 500 g/ha (Abutilon theophrasti [7]) of the same molecule?
**A.** 0%

**Q.** And the pest or weed control at 500 g/ha (Amaranthus retroflexus [8])?
**A.** 0%

**Q.** And the plant injury at 500 g/ha (Zea mays [9])?
**A.** 0%

**Q.** And the pest or weed control at 500 g/ha (Galium aperine [10])?
**A.** 0%

**Q.** What about the plant injury at 500 g/ha (Beta vulgaris [11]) of the same molecule?
**A.** 30%

**Q.** What about the pest or weed control at 1000 g/ha (Solanum) of the same molecule?
**A.** 0%

**Q.** What about the pest or weed control at 1000 g/ha (Lepidium) of the same molecule?
**A.** 40%

**Q.** What about the pest or weed control at 1000 g/ha (Echinochloa) of the same molecule?
**A.** 80%

**Q.** And the pest or weed control at 1000 g/ha (Reis)?
**A.** 50%

**Q.** And the IC50 (Plasmodium falciparum)?
**A.** 800 nM

**Q.** And the IC50 [12]?
**A.** 22 nM

**Q.** What about the pest or weed control at 500 g/ha (Setaria viridis [13]) of the same molecule?
**A.** 95%

**Q.** And the pest or weed control at 500 g/ha (Sinapis arvensis [14])?
**A.** 95%

**Q.** What about the pest or weed control at 500 g/ha (Cyperus esculentus [15]) of the same molecule?
**A.** 0%

**Q.** And the pest or weed control at 500 g/ha (Xanthium strumarium [16])?
**A.** 60%

**Q.** What about the pest or weed control at 500 g/ha (Avena fatua [17]) of the same molecule?
**A.** 50%

**Q.** And the pest or weed control at 500 g/ha (Alopecurus myosuroides [18])?
**A.** 50%

**Q.** What about the pest or weed control at 500 g/ha (Abutilon theophrasti [19]) of the same molecule?
**A.** 40%

**Q.** What about the pest or weed control at 500 g/ha (Amaranthus retroflexus [20]) of the same molecule?
**A.** 0%

**Q.** What about the plant injury at 500 g/ha (Zea mays [21]) of the same molecule?
**A.** 80%

**Q.** What about the pest or weed control at 500 g/ha (Galium aperine [22]) of the same molecule?
**A.** 90%

**Q.** And the plant injury at 500 g/ha (Beta vulgaris [23])?
**A.** 70%

**Q.** For `O=C1CCON1CC(O)CP(=O)(O)O` (stereo not shown) [Compound 2], which MIC (Pseudomonas aeruginosa) is on record?
**A.** 1600 nM (≈ 0.36 µg/mL)

**Q.** What about the pest or weed control at 500 g/ha (Setaria viridis [1]) of the same molecule?
**A.** 0%

**Q.** And the pest or weed control at 500 g/ha (Sinapis arvensis [2])?
**A.** 0%

**Q.** What about the pest or weed control at 500 g/ha (Cyperus esculentus [3]) of the same molecule?
**A.** 0%

**Q.** And the pest or weed control at 500 g/ha (Xanthium strumarium [4])?
**A.** 0%

**Q.** And the pest or weed control at 500 g/ha (Avena fatua [5])?
**A.** 0%

**Q.** What about the pest or weed control at 500 g/ha (Alopecurus myosuroides [6]) of the same molecule?
**A.** 0%

**Q.** What about the pest or weed control at 500 g/ha (Abutilon theophrasti [7]) of the same molecule?
**A.** 0%

**Q.** What about the pest or weed control at 500 g/ha (Amaranthus retroflexus [8]) of the same molecule?
**A.** 0%

**Q.** What about the plant injury at 500 g/ha (Zea mays [9]) of the same molecule?
**A.** 0%

**Q.** And the pest or weed control at 500 g/ha (Galium aperine [10])?
**A.** 0%

**Q.** What about the plant injury at 500 g/ha (Beta vulgaris [11]) of the same molecule?
**A.** 0%

**Q.** What about the pest or weed control at 1000 g/ha (Solanum) of the same molecule?
**A.** 0%

**Q.** And the pest or weed control at 1000 g/ha (Lepidium)?
**A.** 0%

**Q.** What about the pest or weed control at 1000 g/ha (Echinochloa) of the same molecule?
**A.** 0%

**Q.** What about the pest or weed control at 1000 g/ha (Reis) of the same molecule?
**A.** 0%

**Q.** What about the IC50 (Plasmodium falciparum) of the same molecule?
**A.** 1200 nM

**Q.** What about the IC50 [12] of the same molecule?
**A.** 110 nM

**Q.** What about the pest or weed control at 500 g/ha (Setaria viridis [13]) of the same molecule?
**A.** 90%

**Q.** What about the pest or weed control at 500 g/ha (Sinapis arvensis [14]) of the same molecule?
**A.** 30%

**Q.** And the pest or weed control at 500 g/ha (Cyperus esculentus [15])?
**A.** 0%

**Q.** What about the pest or weed control at 500 g/ha (Xanthium strumarium [16]) of the same molecule?
**A.** 50%

**Q.** And the pest or weed control at 500 g/ha (Avena fatua [17])?
**A.** 30%

**Q.** What about the pest or weed control at 500 g/ha (Alopecurus myosuroides [18]) of the same molecule?
**A.** 0%

**Q.** What about the pest or weed control at 500 g/ha (Abutilon theophrasti [19]) of the same molecule?
**A.** 0%

**Q.** And the pest or weed control at 500 g/ha (Amaranthus retroflexus [20])?
**A.** 0%

**Q.** What about the plant injury at 500 g/ha (Zea mays [21]) of the same molecule?
**A.** 0%

**Q.** And the pest or weed control at 500 g/ha (Galium aperine [22])?
**A.** 0%

**Q.** And the plant injury at 500 g/ha (Beta vulgaris [23])?
**A.** 0%
